Laboratory results from ChEMBL document CHEMBL1177785, “Chemoselective regulation of TREK2 channel: activation by sulfonate chalcones and inhibition by sulfonamide chalcones” (Bioorg Med Chem Lett, 2010).
pEC50, pIC50: −log10 of the molar value.

Assays:
[1] = target: T1, Potassium channel subfamily K member 10 (Rattus norvegicus, UniProt Q9JIS4); assay: Inhibition of rat TREK2 channel -mediated current expressed in HEK293 at 60 mV holding potential by patch clamp method; type: cell-based
T1 sequence (Q9JIS4 whole entry): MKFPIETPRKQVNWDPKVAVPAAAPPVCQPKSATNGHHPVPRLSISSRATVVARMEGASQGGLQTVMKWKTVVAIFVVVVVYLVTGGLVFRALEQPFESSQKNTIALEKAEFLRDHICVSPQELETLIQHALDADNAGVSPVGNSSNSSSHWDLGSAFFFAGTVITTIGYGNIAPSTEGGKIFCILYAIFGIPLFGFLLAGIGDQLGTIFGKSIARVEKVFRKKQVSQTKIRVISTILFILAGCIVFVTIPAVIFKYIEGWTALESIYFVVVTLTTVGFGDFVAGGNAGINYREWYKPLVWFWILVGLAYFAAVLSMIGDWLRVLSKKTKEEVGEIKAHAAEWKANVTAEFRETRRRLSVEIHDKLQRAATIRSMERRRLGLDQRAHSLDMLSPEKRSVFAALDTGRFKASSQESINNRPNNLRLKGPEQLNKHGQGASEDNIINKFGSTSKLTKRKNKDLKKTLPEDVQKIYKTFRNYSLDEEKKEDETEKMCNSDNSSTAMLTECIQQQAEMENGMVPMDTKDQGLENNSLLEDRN

[2] = target: T1, Potassium channel subfamily K member 10; assay: Activation of rat TREK2 channel -mediated current expressed in HEK293 at 60 mV holding potential by patch clamp method; type: cell-based

SMILES | pIC50 [1] | pEC50 [2]
Cc1ccc(S(=O)(=O)Nc2ccc(C(=O)/C=C/c3ccccc3)cc2)cc1 | < 4.00 | 
Cc1ccc(S(=O)(=O)Oc2ccc(C(=O)/C=C/c3ccc(O)cc3)cc2)cc1 |  | 3.78
Cc1ccc(S(=O)(=O)Nc2ccc(C(=O)/C=C/c3ccc(O)cc3)cc2)cc1 | 4.21 | 
COc1ccc(/C=C/C(=O)c2ccc(NS(=O)(=O)c3ccc(C)cc3)cc2)cc1 | 4.00 | 
